Holding throughout (type): functional
For assay [1], the system named is Staphylococcus aureus. In words: Antimicrobial activity against compound treated Staphylococcus aureus harboring mgrA C12S mutant gene retro-orbitally infected into mouse assessed as reduction in bacterial CFU in kidney at 10 ug/ml relative to control.
Assay [2] concerns Staphylococcus aureus. In words: Antimicrobial activity against compound treated Staphylococcus aureus harboring mgrA C12S mutant gene retro-orbitally infected into mouse assessed as reduction in bacterial CFU in liver at 10 ug/ml relative to control.
In assay [3] the test system is Staphylococcus aureus. In words: Antimicrobial activity against Staphylococcus aureus.
Assay [4] deals with Staphylococcus aureus. In words: Antimicrobial activity against Staphylococcus aureus expressing mgrA C12S mutant gene.

Each structure is given as a SMILES string. Values after ≈ are worked out from the molar mass of the structure shown.

Broadly, the MIC is the lowest concentration found to suppress growth. A low value points to inhibition by little substance.

Take `CC[C@H]1OC(=O)[C@H](C)[C@@H](O[C@H]2C[C@@](C)(OC)[C@@H](O)[C@H](C)O2)[C@H](C)[C@@H](O[C@@H]2O[C@H](C)C[C@H](N(C)C)[C@H]2O)[C@](C)(O)C[C@@H](C)C(=O)[C@H](C)[C@@H](O)[C@]1(C)O` [ERYTHROMYCIN]: the “fold change (FC)” value in the assay on Staphylococcus aureus [1] came to 10000; with Staphylococcus aureus [2], 100.
With `CCn1cc(C(=O)O)c(=O)c2cc(F)c(N3CCNCC3)cc21` [NORFLOXACIN], the MIC in the assay with Staphylococcus aureus [3] is 0.7 µg/mL (≈ 2.19 µM); in the assay on Staphylococcus aureus [4], 1.4 µg/mL (≈ 4.38 µM).

The values are drawn from ChEMBL document CHEMBL1240316, “An oxidation-sensing mechanism is used by the global regulator MgrA in Staphylococcus aureus” (2006).
